# In patent US10947252B2, “Inhibitors of KEAP1-Nrf2 protein-protein interaction” (Janssen Pharmaceutica NV, priority 2018, dated 2021):
# Assays:
# [1] = target: Kelch domain of human KEAP1 (321-624 aa) (Homo sapiens (Human), UniProt Q14145); assay: KEAP1 KELCH ThermoFluor binding assay; details: KEAP Kelch […], 1,8-ANS, pH 7.0, average of results obtained, read-out: Tf Kd;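 further: Ligand-induced melting temperature shift of E. coli-expressed KEAP1 Kelch protein, Kd estimated from concentration-response curves of ΔTm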
# Kelch domain of human KEAP1 (321-624 aa), sequence (Q14145 321-624): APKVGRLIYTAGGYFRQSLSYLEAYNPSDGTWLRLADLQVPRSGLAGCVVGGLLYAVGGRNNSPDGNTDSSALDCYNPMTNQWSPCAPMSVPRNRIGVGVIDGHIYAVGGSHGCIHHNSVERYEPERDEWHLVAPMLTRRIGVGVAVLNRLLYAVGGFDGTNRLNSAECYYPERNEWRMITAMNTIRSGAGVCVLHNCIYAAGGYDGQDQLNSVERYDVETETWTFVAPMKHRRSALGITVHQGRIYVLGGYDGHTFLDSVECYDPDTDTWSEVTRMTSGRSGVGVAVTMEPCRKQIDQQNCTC
# [2] = tested on: Glo-Response ARE-luc2P HEK293 cell line; assay: ARE luciferase reporter cell-based assay; details: Homo sapiens, HEK293, 24 h, average of results obtained;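 further: luciferase signal tracks Nrf2 activation of the ARE once compounds disrupt KEAP1-Nrf2 binding, read with One-Glo reagent, DMSO serving as low control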
Kd [1] [nM],Compound,EC50 [2] [nM]
1450,"Cc1cnc2c(c1)S(=O)(=O)N(Cc1cc([C@H](c3ccc4c(nnn4C4CC4)c3C)C(C)(C)C(=O)O)ccc1C)CC1(CCNCC1)O2 (single isomer, unassigned) [Example 649, (*R)-3-(1-Cyclopropyl-4-methyl-1H-benzo[d][1,2,3]triazol-5-yl)-2,2-dimethyl-3-(4-methyl-3-((8′-methyl-1′,1′-dioxidospiro[piperidine-4,4′-pyrido[2,3-b][1,4,5]oxathiazepin]-2′(3′)-yl)methyl)phenyl)propanoic Acid]",4750
< 1,"Cc1cnc2c(c1)S(=O)(=O)N(Cc1cc([C@@H](c3ccc4c(nnn4C4CC4)c3C)C(C)(C)C(=O)O)ccc1C)CC1(CCNCC1)O2 (single isomer, unassigned) [Example 650, (*S)-3-(1-Cyclopropyl-4-methyl-1H-benzo[d][1,2,3]triazol-5-yl)-2,2-dimethyl-3-(4-methyl-3-((8′-methyl-1′,1′-dioxidospiro[piperidine-4,4′-pyrido[2,3-b][1,4,5]oxathiazepin]-2′(3′H)-yl)methyl)phenyl)propanoic Acid]",4.36
< 1,"Cc1ncc([C@@H](c2ccn3c(C(F)(F)F)nnc3c2C)C(C)(C)C(=O)O)cc1CN1C[C@@H]2CCCCN2c2ncc(C#N)cc2S1(=O)=O (single isomer, unassigned) [Example 655, (*R)-3-(5-(((*S)-3-Cyano-5,5-dioxido-7,7a,8,9,10,11-hexahydro-6H-dipyrido[2,1-d:2′,3′-f][1,2,5]thiadiazepin-6-yl)methyl)-6-methylpyridin-3-yl)-2,2-dimethyl-3-(8-methyl-3-(trifluoromethyl)-[1,2,4]triazolo[4,3-a]pyridin-7-yl)propanoic Acid]",138
< 1,"Cc1ncc([C@H](c2ccn3c(C(F)(F)F)nnc3c2C)C(C)(C)C(=O)O)cc1CN1C[C@@H]2CCCCN2c2ncc(C#N)cc2S1(=O)=O (single isomer, unassigned) [Example 657, (*S)-3-(5-(((*S)-3-Cyano-5,5-dioxido-7,7a,8,9,10,11-hexahydro-6H-dipyrido[2,1-d:2′,3′-f][1,2,5]thiadiazepin-6-yl)methyl)-6-methylpyridin-3-yl)-2,2-dimethyl-3-(8-methyl-3-(trifluoromethyl)-[1,2,4]triazolo[4,3-a]pyridin-7-yl)propanoic Acid]",75
1210,"Cc1ccc([C@H](c2ccn3c(C(F)(F)F)nnc3c2C)C(C)(C)C(=O)O)cc1CN1CC2(CC2)Oc2nc(OCCN3CCCC3)c(C)cc2S1(=O)=O (single isomer, unassigned) [Example 658, (*R)-2,2-dimethyl-3-(4-methyl-3-((8′-methyl-1′,1′-dioxido-7′-(2-(pyrrolidin-1-yl)ethoxy)spiro[cyclopropane-1,4′-pyrido[2,3-b][1,4,5]oxathiazepin]-2′(3′H)-yl)methyl)phenyl)-3-(8-methyl-3-(trifluoromethyl)-[1,2,4]triazolo[4,3-a]pyridin-7-yl)propanoic Acid]",6050
568,"Cc1ccc([C@H](c2ccn3c(C(F)(F)F)nnc3c2C)C(C)(C)C(=O)O)cc1CN1CC2(CC2)Oc2nc(OCCN3CCC(F)CC3)c(C)cc2S1(=O)=O (single isomer, unassigned) [Example 662, (*S)-3-(3-((7′-(2-(4-fluoropiperidin-1-yl)ethoxy)-8′-methyl-1′,1′-dioxidospiro[cyclopropane-1,4′-pyrido[2,3-b][1,4,5]oxathiazepin]-2′(3′H)-yl)methyl)-4-methylphenyl)-2,2-dimethyl-3-(8-methyl-3-(trifluoromethyl)-[1,2,4]triazolo[4,3-a]pyridine-7-yl)propanoic Acid]",308
< 1,"Cc1ccc([C@@H](c2ccn3c(C4CC4)nnc3c2C)C(C)(C)C(=O)O)cc1CN1CC2(CC2)Oc2nc(OCCN3CCCC3)c(C)cc2S1(=O)=O (single isomer, unassigned) [Example 663, (*S)-3-(3-Cyclopropyl-8-methyl-[1,2,4]triazolo[4,3-a]pyridin-7-yl)-2,2-dimethyl-3-(4-methyl-3-((8′-methyl-1′,1′-dioxido-7′-(2-(pyrrolidin-1-yl)ethoxy)spiro[cyclopropane-1,4′-pyrido[2,3-b][1,4,5]oxathiazepin]-2′(3′H)-yl)methyl)phenyl)propanoic Acid]",57.5
1840,"Cc1ccc([C@H](c2ccn3c(C4CC4)nnc3c2C)C(C)(C)C(=O)O)cc1CN1CC2(CC2)Oc2nc(OCCN3CCCC3)c(C)cc2S1(=O)=O (single isomer, unassigned) [Example 664, (*R)-3-(3-Cyclopropyl-8-methyl-[1,2,4]triazolo[4,3-a]pyridin-7-yl)-2,2-dimethyl-3-(4-methyl-3-((8′-methyl-1′,1′-dioxido-7′-(2-(pyrrolidin-1-yl)ethoxy)spiro[cyclopropane-1,4′-pyrido[2,3-b][1,4,5]oxathiazepin]-2′(3′H)-yl)methyl)phenyl)propanoic Acid]",> 20000
180,"CCn1nnc2c(C)c([C@@H](c3cc(CN4CC5(CC5)Oc5ncc(C)cc5S4(=O)=O)c(C)cn3)C(C)(C)C(=O)O)ccc21 (single isomer, unassigned) [Example 665, (*R)-3-(1-Ethyl-4-methyl-1H-benzo[d][1,2,3]triazol-5-yl)-2,2-dimethyl-3-(5-methyl-4-((8′-methyl-1′,1′-dioxidospiro[cyclopropane-1,4′-pyrido[2,3-b][1,4,5]oxathiazepin]-2′(3′H)-yl)methyl)pyridin-2-yl)propanoic Acid]",497
0.042,"Cc1ccc(C(CC(=O)O)c2cc(OC(F)F)c3c(c2)nnn3C)cc1CN1C[C@H]2CCCCN2c2ncccc2S1(=O)=O (stereo in doubt) [Example 1, 3-(7-(Difluoromethoxy)-1-methyl-1H-benzo[d][1,2,3]triazol-5-yl)-3-(3-(((*R)-5,5-dioxido-7,7a,8,9,10,11-hexahydro-6H-dipyrido[2,1-d:2′,3′-f][1,2,5]thiadiazepin-6-yl)methyl)-4-methylphenyl)propanoic acid]",35
0.278,"Cc1ccc(C(CC(=O)O)c2ccc3c(nnn3C3CC3)c2C)cc1CN1C[C@@H]2COCCN2c2ncccc2S1(=O)=O (stereo in doubt) [Example 23, 3-(1-Cyclopropyl-4-methyl-1H-benzo[d][1,2,3]triazol-5-yl)-3-(3-(((*R)-5,5-dioxido-7a,8,10,11-tetrahydro-[1,4]oxazino[3,4-d]pyrido[2,3-f][1,2,5]thiadiazepin-6(7H)-yl)methyl)-4-methylphenyl)propanoic Acid]",8.3
1,"Cc1ccc([C@H](CC(=O)O)c2ccc3c(nnn3CC3CC3)c2C(F)F)cc1CN1CC2CCCN2c2ncccc2S1(=O)=O (stereo in doubt) [Example 66, (*S)-3-(1-(Cyclopropylmethyl)-4-(difluoromethyl-1H-benzo[d][1,2,3]triazol-5-yl)-3-(3-((R-5,5-dioxido-7a,8,9,10-tetrahydropyridi[2,3-f]pyrrolo[2,1-d][1,2,5]thiadiazepin-6(7H)-yl)methyl)-4-methylphenyl)propanoic Acid]",260
1.4,"Cc1ccc([C@@H](CC(=O)O)c2ccc3c(nnn3CC3CC3)c2C(F)F)cc1CN1CC2CCCN2c2ncccc2S1(=O)=O (stereo in doubt) [Example 68, (*R)-3-(1-(Cyclopropylmethyl)-4-(difluoromethyl-1H-benzo[d][1,2,3]triazol-5-yl)-3-(3-((R-5,5-dioxido-7a,8,9,10-tetrahydropyridi[2,3-f]pyrrolo[2,1-d][1,2,5]thiadiazepin-6(7H)-yl)methyl)-4-methylphenyl)propanoic Acid]",250
8,"Cc1ccc(C(CC(=O)O)c2ccc3c(nnn3CC3CC3)c2C)cc1CN1C[C@@]2(C)CCCN2c2ncccc2S1(=O)=O (stereo in doubt) [Example 80, 3-(1-(Cyclopropylmethyl)-4-methyl-1H-benzo[d][1,2,3]triazol-5-yl)-3-(4-methyl-3-(((*R)-7a-methyl-5,5-dioxido-7a,8,9,10-tetrahydropyrido[2,3-f]pyrrolo[2,1-d][1,2,5]thiadiazepin-6(7H)-yl)methyl)phenyl)propanoic Acid]",306
< 1,"Cc1ccc([C@H](c2ccn3c(C(F)(F)F)nnc3c2C)C(C)(C)C(=O)O)cc1CN1CC2(CCOCC2)Oc2nc(NC3CC(O)C3)c(C)cc2S1(=O)=O (stereo in doubt) [Example 125, (*R)-3-(3-((7′-(((1s,3S)-3-Hydroxycyclobutyl)amino)-8′-methyl-1′,1′-dioxido-2,3,5,6-tetrahydrospiro[pyran-4,4′-pyrido[2,3-b][1,4,5]oxathiazepin]-2′(3′H)-yl)methyl)-4-methylphenyl)-2,2-dimethyl-3-(8-methyl-3-(trifluoromethyl)-[1,2,4]triazolo[4,3-a]pyridine-7-yl)propanoic Acid]",140
< 1,"Cc1ccc(C(CC(=O)O)c2ccn3c(C(F)(F)F)nnc3c2C)cc1CN1C[C@H]2CCCCN2c2ncccc2S1(=O)=O (stereo in doubt) [Example 271, 3-(3-(((*R)-5,5-Dioxido-7,7a,8,9,10,11-hexahydro-6H-dipyrido[2,1-d:2′,3′-f][1,2,5]thiadiazepin-6-yl)methyl)-4-methylphenyl)-3-(8-methyl-3-(trifluoromethyl)-[1,2,4]triazolo[4,3-a]pyridin-7-yl)propanoic Acid]",22.9

Compound,Kd [1] [nM],EC50 [2] [nM]
"Cc1ccc([C@H](c2ccc3c(nnn3C3CC3)c2C)C(C)(C)C(=O)O)cc1CN1CC2(CC2)Oc2nc(N[C@@H](C)CN3CCCCC3)c(C)cc2S1(=O)=O (single isomer, unassigned) [Example 660, (*R)-3-(1-Cyclopropyl-4-methyl-1H-benzo[d][1,2,3]triazol-5-yl)-2,2-dimethyl-3-(4-methyl-3-((8′-methyl-1′,1′-dioxido-7′-(((S)-1-(piperidin-1-yl)propan-2-yl)amino)spiro[cyclopropane-1,4′-pyrido[2,3-b][1,4,5]oxathiazepin]-2′(3′H)-yl)methyl)phenyl)propanoic Acid]",681,235
